According to US4032659A (priority 1975, dated 1977):
Where a name gives a salt, the structure may show the parent alone. Read-outs that look alike come from different tables or passages of the source.

Legend:
[1] = tested on: Influenza B Massachusetts virus; experiment: Chemoprophylaxis of Influenza B Massachusetts virus infection in mice; type: in vivo, mouse; conditions: oral
Procedure: The activity of four compounds on Influenza B Mass. was tested in mice.
A portion of a commercially available sample of amantadine was recrystallized from isopropanol. The activity of the material against Influenza B Mass. was tested for the sample as obtained, the recrystallized portion, and the mother liquor obtained from recrystallizing the portion.

[2] = tested on: Influenza Ann Arbor virus; experiment: Chemoprophylaxis of Influenza Ann Arbor (A1) virus infection in mice; type: in vivo, mouse
Influenza PR 8 virus = experiment: Chemoprophylaxis of Influenza PR 8 virus infection in mice; type: in vivo, mouse; conditions: oral
virus infections = experiment: Antiviral screening program, several viruses; conditions: mouse, in vivo
Herpes virus [3] = type: in vivo, mouse; conditions: oral
Herpes virus [4] = experiment: Herpes virus in eggs (chick embryo survival); type: in vivo, chicken eggs; conditions: all doses
[5] = subcutaneous, total dose 500 μg
[6] = subcutaneous, total dose .00005 μg
[7] = subcutaneous, total dose .0005 μg
[8] = subcutaneous, total dose .005 μg
[9] = subcutaneous, total dose .05 μg

## NC12CC3CC(CC(C3)C1)C2 [Recrystallized amantadine, amantadine, reference compound]
[1]; total dose 60 ng
  No. animals surviving after 11 days: 4
  Survivors: 2
[1]; total dose 600 ng
  No. animals surviving after 11 days: 3
  Survivors: 3
[1]; total dose 6 μg
  No. animals surviving after 11 days: 5
  Survivors: 5
[1]; total dose 60 μg
  No. animals surviving after 11 days: 5
  Survivors: 2
[1]; total dose 600 μg
  No. animals surviving after 11 days: 3
  Survivors: 2
[1]; total dose 6 mg
  No. animals surviving after 11 days: 6
  Survivors: 4

## N=C(N)NN [aminoguanidine, bicarbonate]
[1]; total dose 40pg
  Survivors: 0
[1]; total dose 4ng
  Survivors: 0
[1]; total dose 40ng
  Survivors: 1
[1]; total dose 400ng
  Survivors: 1
[1]; total dose 4μg
  Survivors: 1

## Cc1ccccc1NC(=S)NN=C1CCCC1 [cyclopentanone, 3-thio-4-o-tolylsemicarbazone]
[2]; oral, total dose 30 pg
  No. animals surviving after 5 days: 6
  Survivors: 0
[2]; oral, total dose 300 pg
  No. animals surviving after 5 days: 9
  Survivors: 0
[2]; oral, total dose 3 ng
  No. animals surviving after 5 days: 9
  Survivors: 0
[2]; oral, total dose 30 ng
  No. animals surviving after 5 days: 9
[2]; oral, total dose 300 ng
  No. animals surviving after 5 days: 6
  Survivors: 0
[2]; oral, total dose 3 μg
  No. animals surviving after 5 days: 6
  Survivors: 0
[2]; oral, total dose 30 μg
  Survivors: 0
[2]; oral, total dose 300 μg
  No. animals surviving after 5 days: 9
  Survivors: 0
[2]; oral, total dose 3 mg
  No. animals surviving after 5 days: 8
  Survivors: 0

## NN [hydrazine, hydrate]
[2]; oral, total dose 5 μg
  No. animals surviving after 5 days: 4
  Survivors: 0
[2]; oral, total dose 50 μg
  No. animals surviving after 5 days: 4
  Survivors: 0
[2]; oral, total dose 500 μg
  No. animals surviving after 5 days: 5
  Survivors: 0
[2]; oral, total dose .00005 μg
  No. animals surviving after 5 days: 6
  Survivors: 0
[2]; oral, total dose .0005 μg
  No. animals surviving after 5 days: 6
  Survivors: 0
[2]; oral, total dose .005 μg
  No. animals surviving after 5 days: 3
  Survivors: 0
[2]; oral, total dose .05 μg
  No. animals surviving after 5 days: 3
  Survivors: 1
[2]; oral, total dose .5 μg
  No. animals surviving after 5 days: 6
  Survivors: 0
[2]; subcutaneous, total dose 5 μg
  No. animals surviving after 5 days: 6
  No. animals surviving after 7 days: 6
[2]; subcutaneous, total dose 5 μg, hydrate
  Survivors: 3
[2]; subcutaneous, total dose 50 μg
  No. animals surviving after 5 days: 4
  No. animals surviving after 7 days: 7
[2]; [5]
  No. animals surviving after 5 days: 3
  No. animals surviving after 7 days: 6
  Survivors: 0
[2]; [6]
  No. animals surviving after 5 days: 1
  No. animals surviving after 7 days: 1
  Survivors: 0
[2]; [7]
  No. animals surviving after 5 days: 7
  No. animals surviving after 7 days: 5
[2]; [8]
  No. animals surviving after 5 days: 4
  No. animals surviving after 7 days: 3
[2]; [9]
  No. animals surviving after 5 days: 6
  No. animals surviving after 7 days: 4
[2]; subcutaneous, total dose .5 μg
  No. animals surviving after 5 days: 5
  No. animals surviving after 7 days: 7
Influenza PR 8 virus; total dose 5 μg
  No. animals surviving after 10 days: 1
  Survivors: 0
Influenza PR 8 virus; total dose 50 μg
  No. animals surviving after 10 days: 1
  Survivors: 0
Influenza PR 8 virus; total dose .000005 μg
  No. animals surviving after 7 days: 4
Influenza PR 8 virus; total dose .00005 μg
  No. animals surviving after 7 days: 0
  No. animals surviving when 18/20 of controls are dead: 4
Influenza PR 8 virus; total dose .0005 μg
  No. animals surviving after 10 days: 1
  No. animals surviving when 18/20 of controls are dead: 3
Influenza PR 8 virus; total dose .0005 μg, hydrate
  Survivors: 1
Influenza PR 8 virus; total dose .005 μg
  No. animals surviving after 7 days: 5
  No. animals surviving after 10 days: 3
  No. animals surviving when 18/20 of controls are dead: 1
Influenza PR 8 virus; total dose .05 μg
  No. animals surviving after 10 days: 0
  No. animals surviving when 18/20 of controls are dead: 1
Influenza PR 8 virus; total dose .5 μg
  No. animals surviving after 10 days: 1
  No. animals surviving when 18/20 of controls are dead: 1
  Survivors: 1
Virus infections
  activity (in words): active on Influenza PR 8, Vaccinia in the mouse tail, Herpes in eggs, Herpes in mice, and Influenza Ann Arbor

## NN [hydrazine]
Herpes virus [3]; total dose 5 μg
  No. animals surviving after 7 days: 7
Herpes virus [3]; total dose .0005 μg
  No. animals surviving after 7 days: 5
  No. animals surviving when 19/20 controls are dead: 5
Herpes virus [3]; total dose .005 μg
  No. animals surviving after 7 days: 6
  No. animals surviving when 19/20 controls are dead: 3
Herpes virus [3]; total dose .05 μg
  No. animals surviving after 7 days: 5
Herpes virus [3]; total dose .5 μg
  No. animals surviving after 7 days: 6
  No. animals surviving when 19/20 controls are dead: 1
Herpes virus [4]
  No. Living Longer Than Controls, total: 3

## NNC(N)=O [semicarbazide, hydrochloride]
Virus infections
  activity (in words): effective against Influenza PR 8 virus, Vaccinia virus in the mouse tail, Herpes virus in eggs, Herpes virus in mice, Neurovaccinia, and Influenza Ann Arbor virus
Herpes virus [3]; total dose 5 μg
  No. animals surviving when 19/20 controls are dead: 4
Herpes virus [3]; total dose .05 μg
  No. animals surviving when 19/20 controls are dead: 4

## N-hydroxyphthalamide
Virus infections
  activity (in words): active in the practice of this invention
